Experimental data from patent US7109296B2, “Human 5-HT3-C protein” (Ortho-McNeil Pharmaceutical, Inc., priority 1999, dated 2006).

How the values were obtained:
Format in all cases: cell-based
5-HT3-B and 5-HT3-C = molecular target: T1, 5-HT3-B and 5-HT3-C (Homo sapiens, UniProt O95264+Q8WXA8); assay: Two-electrode voltage clamp, oocytes co-injected with 5-HT3-B and 5-HT3-C; details: 5-HT3-B 3.3 ng, 5-HT3-C 3.35 ng/oocyte
T1 construct: Characterization of the Function of Protein Encoded by p5HT3CR in Xenopus oocvtes; expressed in transfected cells; host or cells: Xenopus laevis oocytes co-injected with cRNAs
T1 sequence (O95264 22-441): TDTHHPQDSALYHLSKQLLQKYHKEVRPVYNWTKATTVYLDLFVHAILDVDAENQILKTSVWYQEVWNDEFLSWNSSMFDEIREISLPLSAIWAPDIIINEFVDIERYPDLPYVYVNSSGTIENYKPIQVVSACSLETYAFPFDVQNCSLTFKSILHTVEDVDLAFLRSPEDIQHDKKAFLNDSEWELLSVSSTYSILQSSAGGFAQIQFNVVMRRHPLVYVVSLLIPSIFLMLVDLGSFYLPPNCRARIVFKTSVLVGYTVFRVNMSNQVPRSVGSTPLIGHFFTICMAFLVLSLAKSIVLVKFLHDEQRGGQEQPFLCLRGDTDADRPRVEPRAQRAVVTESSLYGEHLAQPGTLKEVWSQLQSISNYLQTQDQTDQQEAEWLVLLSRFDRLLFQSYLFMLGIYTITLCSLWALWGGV
T1 sequence (Q8WXA8 28-447): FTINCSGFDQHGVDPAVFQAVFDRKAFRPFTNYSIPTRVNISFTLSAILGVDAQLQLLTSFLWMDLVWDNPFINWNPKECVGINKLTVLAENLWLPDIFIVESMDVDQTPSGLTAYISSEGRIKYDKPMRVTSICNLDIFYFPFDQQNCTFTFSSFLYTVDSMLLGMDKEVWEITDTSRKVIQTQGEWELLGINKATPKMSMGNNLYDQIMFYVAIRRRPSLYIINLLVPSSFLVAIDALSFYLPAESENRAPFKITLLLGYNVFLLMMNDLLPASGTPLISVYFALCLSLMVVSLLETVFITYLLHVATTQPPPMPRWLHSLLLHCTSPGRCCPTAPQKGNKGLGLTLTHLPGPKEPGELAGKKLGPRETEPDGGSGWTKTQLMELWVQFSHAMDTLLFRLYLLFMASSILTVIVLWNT
Method: (§1) Characterization of the Function of Protein Encoded by p5HT3CR in Xenopus oocvtes Xenopus laevis oocytes were prepared and injected using standard methods previously described and known in the art (Fraser et al., 1993). Ovarian lobes from adult female Xenopus laevis (Nasco, Fort Atkinson, Wis.) were teased apart, rinsed several times in nominally Ca-free saline containing (in mM): NaCl 82.5, KCl 2.5, MgCl2 1, HEPES 5, adjusted to pH 7.0 with NaOH(OR-2), and gently shaken in OR-2 containing 0.2% collagenase Type 1 (ICN Biomedicals, Aurora, Ohio) for 2–5 hours. When approximately 50% of the follicular layers were removed, Stage V and VI oocytes were selected and rinsed in media consisting of 75% OR-2 and 25% ND-96. The ND-96 contained (in mM): NaCl 100, KCl 2, MgCl2 1, CaCl2 1.8, HEPES 5, Na pyruvate 2.5, gentamicin (50 ug/ml), adjusted to pH 7.0 with NaOH. […] For in vitro transcription, pGEM HE (Liman et al., 1992) containing human 5-HT3-A (Genbank D49394) or 5-HT3-C cDNA was linearized with NheI and transcribed with T7 RNA polymerase (Stratagene) in the presence of the cap analog m7G(5′)ppp(5′)G. The synthesized cRNA was purified with a Sephadex G-50 spin column. […] Control oocytes were injected with 50 nl of water. Oocytes were incubated for 2–14 days in ND-96 before analysis for expression of the human 5-HT3-C. Incubations and collagenase digestion were carried out at room temperature. Injected oocytes were maintained in 48 well cell culture clusters (Costar, Cambridge, Mass.) at 18° C. Whole cell agonist-induced currents were measured 1–14 days after injection with a conventional two-electrode voltage clamp (GeneClamp500, Axon Instruments, Foster City, Calif.) using standard methods previously described and known in the art (Dascal, 1987). The microelectrodes were filled with 3 M KCl, which had resistances of 1 and 2 MΩ. Cells were continuously perfused with ND96 at 10 ml/min at room temperature unless indicated. Membrane voltage was clamped at −70 mV unless indicated.

[1] = molecular target: T2, long form of human 5-HT3-A together with 5-HT3-C (Homo sapiens, UniProt P46098+Q8WXA8); assay: Two-electrode voltage clamp, oocytes co-injected with long form of human 5-HT3-A and 5-HT3-C; details: 100 μM; n=2
T2 construct: Characterization of the Function of Protein Encoded by p5HT3CR in Xenopus oocvtes; expressed in transfected cells; host or cells: Xenopus laevis oocytes co-injected with cRNAs
T2 sequence (P46098 24-510 isoform P46098-2): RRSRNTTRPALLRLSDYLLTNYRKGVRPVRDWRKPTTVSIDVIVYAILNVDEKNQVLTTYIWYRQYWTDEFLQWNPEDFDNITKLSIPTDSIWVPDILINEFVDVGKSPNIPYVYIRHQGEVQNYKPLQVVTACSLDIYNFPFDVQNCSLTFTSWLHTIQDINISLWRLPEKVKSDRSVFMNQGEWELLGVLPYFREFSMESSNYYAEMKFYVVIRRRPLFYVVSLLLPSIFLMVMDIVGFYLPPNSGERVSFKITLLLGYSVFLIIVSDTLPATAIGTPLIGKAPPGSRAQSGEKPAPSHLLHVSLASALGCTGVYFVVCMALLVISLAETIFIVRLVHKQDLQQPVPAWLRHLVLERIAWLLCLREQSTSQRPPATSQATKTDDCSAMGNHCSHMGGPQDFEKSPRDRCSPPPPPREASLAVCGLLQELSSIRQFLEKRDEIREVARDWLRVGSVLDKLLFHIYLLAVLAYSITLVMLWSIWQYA
T2 sequence (Q8WXA8 28-447): T1 sequence (Q8WXA8 28-447)
Method: Characterization of the Function of Protein Encoded by p5HT3CR in Xenopus oocvtes Xenopus laevis oocytes were prepared and injected using standard methods previously described and known in the art (Fraser et al., 1993). Ovarian lobes from adult female Xenopus laevis (Nasco, Fort Atkinson, Wis.) were teased apart, rinsed several times in nominally Ca-free saline containing (in mM): NaCl 82.5, KCl 2.5, MgCl2 1, HEPES 5, adjusted to pH 7.0 with NaOH(OR-2), and gently shaken in OR-2 containing 0.2% collagenase Type 1 (ICN Biomedicals, Aurora, Ohio) for 2–5 hours. When approximately 50% of the follicular layers were removed, Stage V and VI oocytes were selected and rinsed in media consisting of 75% OR-2 and 25% ND-96. The ND-96 contained (in mM): NaCl 100, KCl 2, MgCl2 1, CaCl2 1.8, HEPES 5, Na pyruvate 2.5, gentamicin (50 ug/ml), adjusted to pH 7.0 with NaOH. […] Whole cell agonist-induced currents were measured 1–14 days after injection with a conventional two-electrode voltage clamp (GeneClamp500, Axon Instruments, Foster City, Calif.) using standard methods previously described and known in the art (Dascal, 1987). […]

human 5-HT3-C = molecular target: T3, human 5-HT3-C (Homo sapiens, UniProt Q8WXA8); assay: Two-electrode voltage clamp, Xenopus oocytes injected with 5-HT3-C cRNA alone; details: oocytes injected with 33.5 ng 5-HT3-C
T3 construct: Characterization of the Function of Protein Encoded by p5HT3CR in Xenopus oocvtes; expressed in transfected cells; host or cells: Xenopus laevis oocytes injected with in vitro transcribed cRNA (pGEM HE)
T3 sequence (Q8WXA8 28-447): T1 sequence (Q8WXA8 28-447)
Method: as §1

[2] = molecular target: T4, 5-HT3-C together with nicotinic ACh receptor a6 subunit (Homo sapiens, UniProt Q15825+Q8WXA8); assay: Two-electrode voltage clamp, oocytes injected with 5-HT3-C together with nicotinic ACh receptor α6 subunit; details: 10 μM; eight days after injection; 5-HT3-C 0.67 ng, a6 1 ng/oocyte
T4 construct: Characterization of the Function of Protein Encoded by p5HT3CR in Xenopus oocvtes; expressed in transfected cells; host or cells: Xenopus laevis oocytes injected with cRNA
T4 sequence (Q15825 26-494, one chain of several): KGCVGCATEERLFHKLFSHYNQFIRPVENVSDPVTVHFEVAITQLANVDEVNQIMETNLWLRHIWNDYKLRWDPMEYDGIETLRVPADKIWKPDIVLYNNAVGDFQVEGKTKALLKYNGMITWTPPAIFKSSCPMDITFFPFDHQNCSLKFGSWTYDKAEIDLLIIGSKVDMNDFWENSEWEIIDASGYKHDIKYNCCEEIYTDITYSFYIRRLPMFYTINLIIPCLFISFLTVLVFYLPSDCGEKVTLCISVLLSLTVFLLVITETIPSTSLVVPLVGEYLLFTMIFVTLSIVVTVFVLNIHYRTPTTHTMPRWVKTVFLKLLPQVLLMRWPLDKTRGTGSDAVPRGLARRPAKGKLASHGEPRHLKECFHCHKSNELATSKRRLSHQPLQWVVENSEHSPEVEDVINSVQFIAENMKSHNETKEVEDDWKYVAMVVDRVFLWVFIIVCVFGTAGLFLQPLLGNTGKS
Method: Characterization of the Function of Protein Encoded by p5HT3CR in Xenopus oocvtes Xenopus laevis oocytes were prepared and injected using standard methods previously described and known in the art (Fraser et al., 1993). Ovarian lobes from adult female Xenopus laevis (Nasco, Fort Atkinson, Wis.) were teased apart, rinsed several times in nominally Ca-free saline containing (in mM): NaCl 82.5, KCl 2.5, MgCl2 1, HEPES 5, adjusted to pH 7.0 with NaOH(OR-2), and gently shaken in OR-2 containing 0.2% collagenase Type 1 (ICN Biomedicals, Aurora, Ohio) for 2–5 hours. When approximately 50% of the follicular layers were removed, Stage V and VI oocytes were selected and rinsed in media consisting of 75% OR-2 and 25% ND-96. The ND-96 contained (in mM): NaCl 100, KCl 2, MgCl2 1, CaCl2 1.8, HEPES 5, Na pyruvate 2.5, gentamicin (50 ug/ml), adjusted to pH 7.0 with NaOH. […] For in vitro transcription, pGEM HE (Liman et al., 1992) containing human 5-HT3-A (Genbank D49394) or 5-HT3-C cDNA was linearized with NheI and transcribed with T7 RNA polymerase (Stratagene) in the presence of the cap analog m7G(5′)ppp(5′)G. The synthesized cRNA was purified with a Sephadex G-50 spin column. Oocytes were injected with 50 nl of the human serotonin 5-HT3-A receptor with or without the 5-HT3-C RNA (0.02 and 0.002–0.2 ng each) or other channel or receptor subunit. Control oocytes were injected with 50 nl of water. Oocytes were incubated for 2–14 days in ND-96 before analysis for expression of the human 5-HT3-C. Incubations and collagenase digestion were carried out at room temperature. Injected oocytes were maintained in 48 well cell culture clusters (Costar, Cambridge, Mass.) at 18° C. Whole cell agonist-induced currents were measured 1–14 days after injection with a conventional two-electrode voltage clamp (GeneClamp500, Axon Instruments, Foster City, Calif.) using standard methods previously described and known in the art (Dascal, 1987). The microelectrodes were filled with 3 M KCl, which had resistances of 1 and 2 MΩ. […]

[3] = molecular target: T5, α3β4 receptors together with 5-HT3-C (Homo sapiens, UniProt P30926+P32297); assay: Two-electrode voltage clamp, oocytes expressing nicotinic ACh α3β4 receptors together with 5-HT3-C
T5 construct: expressed in transfected cells; host or cells: Xenopus laevis oocytes co-injected with cRNAs
T5 sequence (P32297 32-505): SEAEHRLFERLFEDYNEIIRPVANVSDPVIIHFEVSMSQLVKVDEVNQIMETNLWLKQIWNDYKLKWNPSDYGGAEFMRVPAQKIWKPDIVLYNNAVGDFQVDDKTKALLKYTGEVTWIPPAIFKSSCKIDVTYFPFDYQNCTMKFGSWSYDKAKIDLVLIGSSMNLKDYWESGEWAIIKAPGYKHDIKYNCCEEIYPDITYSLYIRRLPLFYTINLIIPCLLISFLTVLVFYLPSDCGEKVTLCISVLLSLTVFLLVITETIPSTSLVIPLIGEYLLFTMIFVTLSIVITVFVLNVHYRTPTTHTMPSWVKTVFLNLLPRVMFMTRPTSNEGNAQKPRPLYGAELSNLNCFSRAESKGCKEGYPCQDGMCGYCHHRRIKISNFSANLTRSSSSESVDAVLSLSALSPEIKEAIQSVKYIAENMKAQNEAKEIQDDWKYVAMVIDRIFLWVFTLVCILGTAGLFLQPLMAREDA
T5 sequence (P30926 22-498): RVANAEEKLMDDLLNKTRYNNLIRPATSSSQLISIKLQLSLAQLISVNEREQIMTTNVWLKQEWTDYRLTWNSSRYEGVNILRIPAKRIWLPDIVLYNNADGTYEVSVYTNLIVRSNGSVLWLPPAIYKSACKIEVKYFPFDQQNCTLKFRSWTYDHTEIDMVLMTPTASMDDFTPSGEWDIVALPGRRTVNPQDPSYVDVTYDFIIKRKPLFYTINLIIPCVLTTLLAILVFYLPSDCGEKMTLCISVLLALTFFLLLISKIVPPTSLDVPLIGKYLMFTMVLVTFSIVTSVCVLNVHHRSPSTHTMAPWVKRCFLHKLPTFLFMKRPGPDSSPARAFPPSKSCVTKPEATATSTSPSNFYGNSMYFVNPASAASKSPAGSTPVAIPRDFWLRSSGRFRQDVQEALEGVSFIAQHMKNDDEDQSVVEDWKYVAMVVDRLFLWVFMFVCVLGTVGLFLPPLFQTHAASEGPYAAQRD

[4] = molecular target: T6, nicotinic ACh α3β4 receptors (Homo sapiens, UniProt P30926+P32297); assay: Two-electrode voltage clamp, oocytes expressing nicotinic ACh α3β4 receptors
T6 construct: expressed in transfected cells; host or cells: Xenopus laevis oocytes injected with cRNA
T6 sequence (P32297 32-505): as the sequence (P32297 32-505) above
T6 sequence (P30926 22-498): as the sequence (P30926 22-498) above

CNCCc1c[nH]c2ccc(O)cc12 [N-ω-methyl-5-HT]
responsiveness of oocytes to agonist (5-HT3-B and 5-HT3-C; 100 μM): unresponsive

NC(N)=NC(N)=Nc1ccccc1 [1-PBG]
sensitivity of oocytes to agonist [1]: insensitive | effect of agonist (agonist-induced current) (human 5-HT3-C; 100 μM): no effect | effect of agonist (agonist-induced current) (human 5-HT3-C; 500 μM): no effect

Clc1ccc(C2CC3CCC2N3)cn1 (stereo not shown) [epibatidine]
responsiveness of oocytes to agonist (5-HT3-B and 5-HT3-C; 10 μM): unresponsive | responsiveness of oocytes to agonist [2]: not responsive | Peak currents [3]: 6.49+/−0.69 nA | effect of 5-HT3-C co-injection on epibatidine-activated currents [3]: no effect | effect of 5-HT3-C on t80, time to peak and degree of desensitization to a second epibatidine stimulus [3]: no effect | Peak currents [4]: −6.93+/−1.45 nA
